Measured values: patent publication US20060069132A1, “Azolecarboxamide herbicides” (priority 2004, published 2006)

Assays:
wheat = test: Test B postemergence herbicide test; assay type: in vivo, Triticum aestivum; design: key to Wheat plant response rating: 0 = no effect, 100 = complete control
Method in brief: (§1)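 Each value is a visual 0–100 response rating taken against controls 13 to 15 days after treatment in the greenhouse. Plants received formulated chemical postemergence at the 1- to 4-leaf stage or, in flooded paddy, at the 2-leaf stage.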

pigweed = test: Test B pre-/postemergence herbicide test; assay type: in vivo, Amaranthus retroflexus
Method in brief: (§2)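 Pre: seeds sown, then sprayed. Post: 1–4-leaf plants (2–18 cm) sprayed at the same time. Paddy: flooded, treated at 2-leaf stage. Formulation: non-phytotoxic solvent with surfactant. Greenhouse 13–15 days; visual 0–100 score relative to controls.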

blackgrass = test: Test B postemergence herbicide test; assay type: in vivo, Alopecurus myosuroides
Method in brief: (§3)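 Greenhouse test; postemergence application to plants at 1–4 leaves (2–18 cm); paddy species at 2 leaves; evaluated visually vs controls at 13–15 days; scale 0–100 (100 = complete control).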

rice [1] = test: Test B flooded paddy test; assay type: in vivo, Oryza sativa; details: 1000 g ai/ha, scale 0 to 100 (0 no effect, 100 complete control)
Method in brief: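 Plants grow to 1- to 4-leaf stage (2–18 cm) for postemergence spraying, or to 2-leaf stage for the paddy test. Formulated compound is applied. Greenhouse holding lasts 13–15 days. Response is scored visually relative to controls, 0 no effect to 100 complete control; a dash means no result.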

[2] = test system: smallflower umbrella sedge; test: Test C flooded paddy test; assay type: in vivo, Cyperus difformis; details: for Plant response rating, Sedge, Umbrella: 500 g ai/ha, visual rating after 12 to 14 days
Description: (§4) At the same time, plants selected from these crop and weed species and also winter barley (Hordeum vulgare L.), blackgrass (Alopecurus myosuroides Huds.), canarygrass (Phalaris minor Retz.), chickweed (Stellaria media (L.) Vill.), downy bromegrass (Bromus tectorum L.), green foxtail (Setaria viridis (L.) Beauv.), Italian ryegrass (Lolium multiflorum Lam.), wheat (Triticum aestivum L.), wild oat (Avenafatua L.) and windgrass (Apera spica-venti (L.) Beauv.) were treated with postemergence applications of some of the test chemicals formulated in the same manner. Plants ranged in height from 2 to 18 cm (1- to 4-leaf stage) for postemergence treatments. Plant species in the flooded paddy test consisted of rice (Oryza sativa), smallflower umbrella sedge (Cyperus difformis L.), ducksalad (Heteranthera limosa (Sw.) Willd.) and barnyardgrass (Echinochloa crus-galli (L.) Beauv.) grown to the 2-leaf stage for testing. Treated plants and controls were maintained in a greenhouse for 12 to 14 days, after which time all species were compared to controls and visually evaluated. Plant response ratings, summarized in Table C, are based on a scale of 0 to 100 where 0 is no effect and 100 is complete control. A dash (-) response means no test result.

barnyardgrass [3] = test: Test C flooded paddy test; assay type: in vivo, Echinochloa crus-galli; details: for Plant response rating, Barnyardgrass: 500 g ai/ha, visual rating after 12 to 14 days
Description: as §4

giant foxtail = test: Test B pre-/postemergence herbicide test; assay type: in vivo, Setaria faberi
Method in brief: as §2

wild oat = test: Test B postemergence herbicide test; assay type: in vivo, Avena fatua
Method in brief: as §1

corn = test: Test B pre-/postemergence herbicide test; assay type: in vivo, Zea mays
Method in brief: as §2

[4] = test system: small flower umbrella sedge; test: Test B flooded paddy test; assay type: in vivo, Cyperus difformis; details: 1000 g ai/ha, scale 0 to 100 (0 no effect, 100 complete control)
Method in brief: as §3

morningglory = test: Test B pre-/postemergence herbicide test; assay type: in vivo, Ipomoea coccinea
Method in brief: (§5)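 Greenhouse pot assay with simultaneous preemergence (treated seed) and postemergence (2–18 cm seedlings) applications of surfactant-containing, non-phytotoxic solvent formulations. Response scored visually 13–15 days later on a 0–100 scale, 100 meaning complete control.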

rice [5] = test: Test C flooded paddy test; assay type: in vivo, Oryza sativa; details: for Plant response rating, Rice: 500 g ai/ha, visual rating after 12 to 14 days
Description: as §4

ducksalad [6] = test: Test B flooded paddy test; assay type: in vivo, Heteranthera limosa; details: 1000 g ai/ha, scale 0 to 100 (0 no effect, 100 complete control)
Method in brief: as §3

large crabgrass = test: Test B pre-/postemergence herbicide test; assay type: in vivo, Digitaria sanguinalis
Method in brief: as §2

barnyardgrass [7] = test: Test B pre-/postemergence herbicide test; assay type: in vivo, Echinochloa crus-galli
Method in brief: as §5

barnyardgrass [8] = test: Test B flooded paddy test; assay type: in vivo, Echinochloa crus-galli; details: 1000 g ai/ha, scale 0 to 100 (0 no effect, 100 complete control)
Method in brief: as §3

lambsquarters = test: Test B pre-/postemergence herbicide test; assay type: in vivo, Chenopodium album
Method in brief: as §2

cocklebur = test: Test B pre-/postemergence herbicide test; assay type: in vivo, Xanthium strumarium
Method in brief: as §5

velvetleaf = test: Test B pre-/postemergence herbicide test; assay type: in vivo, Abutilon theophrasti
Method in brief: as §2

ducksalad [9] = test: Test C flooded paddy test; assay type: in vivo, Heteranthera limosa; details: for Plant response rating, Ducksalad: 500 g ai/ha, visual rating after 12 to 14 days
Description: as §4

Surinam grass = test: Test B pre-/postemergence herbicide test; assay type: in vivo, Urochloa decumbens
Method in brief: as §2

[10] = 125 g ai/ha, visual rating, scale 0 (no effect) to 100 (complete control), postemergence
[11] = postemergence, 500 g ai/ha, scale 0 to 100, 0 is no effect, 100 is complete control
[12] = 125 g ai/ha, 0 is no effect, 100 is complete control, preemergence
[13] = 500 g ai/ha, visual rating, 0 = no effect, 100 = complete control, preemergence
[14] = 125 g ai/ha, scale 0 to 100 (0 no effect, 100 complete control)
[15] = 250 g ai/ha, scale of 0 to 100, 0 is no effect, 100 is complete control
[16] = scale 0 to 100 (0 no effect, 100 complete control)
[17] = 62 g ai/ha, scale 0 to 100 (0 no effect, 100 complete control)
[18] = Postemergence, 250 g ai/ha, scale 0 (no effect) to 100 (complete control)
[19] = postemergence, 62 g ai/ha, scale 0 to 100

SMILES: CCOC(=O)c1ccc(F)c(NC(=O)C2CN(C(C)(C)C)N=C2CC)c1 (racemic) [Compound 335]
- Wheat plant response rating (wheat; [10]): 10
- Wheat plant response rating (wheat; [11]): 20
- Plant response rating (0 to 100 scale), Pigweed (pigweed; [12]): 0
- Pigweed plant response rating (pigweed; [10]): 20
- Plant response rating, Pigweed (pigweed; [13]): 10
- Pigweed plant response rating (pigweed; [11]): 70
- Blackgrass plant response rating (blackgrass; [10]): 10
- Blackgrass plant response rating (blackgrass; [11]): 30
- Rice plant response rating (rice [1]): 70
- Sedge, Umbrella plant response rating ([2]; 62 g ai/ha, scale 0 to 100): 45
- Sedge, Umbrella plant response rating [2, 14]: 85
- Sedge, Umbrella plant response rating [2, 15]: 90
- Plant response rating, Sedge, Umbrella [2, 16]: 95
- Barnyardgrass plant response rating (barnyardgrass [3]; [17]): 10
- Barnyardgrass plant response rating (barnyardgrass [3]; [14]): 25
- Barnyardgrass plant response rating (barnyardgrass [3]; [15]): 40
- Plant response rating, Barnyardgrass (barnyardgrass [3]; [16]): 65
- Plant response rating (0 to 100 scale), Foxtail, Giant (giant foxtail; [12]): 60
- Foxtail, Giant plant response rating (giant foxtail; [10]): 20
- Plant response rating, Foxtail, Giant (giant foxtail; [13]): 90
- Foxtail, Giant plant response rating (giant foxtail; [11]): 40
- Oat, Wild plant response rating (wild oat; [10]): 20
- Oat, Wild plant response rating (wild oat; [11]): 40
- Plant response rating (0 to 100 scale), Corn (corn; [12]): 30
- Corn plant response rating (corn; [10]): 10
- Plant response rating, Corn (corn; [13]): 50
- Corn plant response rating (corn; [11]): 20
- Sedge, Umbrella plant response rating [4]: 80
- Plant response rating (0 to 100 scale), Morningglory (morningglory; [12]): 0
- Morningglory plant response rating (morningglory; [10]): 10
- Plant response rating, Morningglory (morningglory; [13]): 10
- Morningglory plant response rating (morningglory; [11]): 40
- Rice plant response rating (rice [5]; 62 g ai/ha, scale 0 to 100): 25
- Rice plant response rating (rice [5]; [14]): 25
- Rice plant response rating (rice [5]; [15]): 55
- Plant response rating, Rice (rice [5]; [16]): 55
- Ducksalad plant response rating (ducksalad [6]): 90
- Plant response rating (0 to 100 scale), Crabgrass, Large (large crabgrass; [12]): 50
- Crabgrass, Large plant response rating (large crabgrass; [10]): 10
- Plant response rating, Crabgrass, Large (large crabgrass; [13]): 100
- Crabgrass, Large plant response rating (large crabgrass; [11]): 40
- Plant response rating (0 to 100 scale), Barnyardgrass (barnyardgrass [7]; [12]): 50
- Barnyardgrass plant response rating (barnyardgrass [7]; [10]): 0
- Plant response rating, Barnyardgrass (barnyardgrass [7]; [13]): 60
- Barnyardgrass plant response rating (barnyardgrass [7]; [11]): 50
- Barnyardgrass plant response rating (barnyardgrass [8]): 60
- Plant response rating (0 to 100 scale), Lambsquarters (lambsquarters; [12]): 0
- Lambsquarters plant response rating (lambsquarters; [10]): 10
- Plant response rating, Lambsquarters (lambsquarters; [13]): 10
- Lambsquarters plant response rating (lambsquarters; [11]): 30
- Plant response rating (0 to 100 scale), Cocklebur (cocklebur; [12]): 0
- Cocklebur plant response rating (cocklebur; [10]): 10
- Plant response rating, Cocklebur (cocklebur; [13]): 10
- Cocklebur plant response rating (cocklebur; [11]): 70
- Plant response rating (0 to 100 scale), Velvetleaf (velvetleaf; [12]): 40
- Velvetleaf plant response rating (velvetleaf; [10]): 30
- Velvetleaf plant response rating (velvetleaf; [11]): 60
- Ducksalad plant response rating (ducksalad [9]; 62 g ai/ha, scale 0 to 100): 0
- Ducksalad plant response rating (ducksalad [9]; [14]): 35
- Ducksalad plant response rating (ducksalad [9]; [15]): 50
- Plant response rating, Ducksalad (ducksalad [9]; [16]): 70
- Plant response rating (0 to 100 scale), Surinam Grass (Surinam grass; [12]): 30
- Surinam Grass plant response rating (Surinam grass; [10]): 10
- Plant response rating, Surinam Grass (Surinam grass; [13]): 40
- Surinam Grass plant response rating (Surinam grass; [11]): 30

SMILES: CCNC(=O)c1cccc(NC(=O)c2cn(C(C)(C)C)nc2C(F)(F)F)c1 [Compound 192]
- Wheat plant response rating (wheat; 250 g ai/ha, scale 0 to 100, 0 no effect, 100 complete control, preemergence): 10
- Wheat plant response rating (wheat; [18]): 0
- Wheat plant response rating (wheat; [19]): 0
- Pigweed plant response rating (pigweed; [18]): 60
- Pigweed plant response rating (pigweed; [19]): 30
- Blackgrass plant response rating (blackgrass; [18]): 0
- Blackgrass plant response rating (blackgrass; [19]): 0
- Rice plant response rating (rice [1]; visual rating, 13 to 15 days): 70
- Sedge, Umbrella plant response rating [2, 17]: 70
- Sedge, Umbrella plant response rating [2, 14]: 75
- Sedge, Umbrella plant response rating [2, 15]: 85
- Plant response rating, Sedge, Umbrella [2, 16]: 90
- Barnyardgrass plant response rating (barnyardgrass [3]; [17]): 0
- Barnyardgrass plant response rating (barnyardgrass [3]; 125 g ai/ha, scale of 0 to 100, 0 is no effect, 100 is complete control): 0
- Barnyardgrass plant response rating (barnyardgrass [3]; [15]): 0
- Plant response rating, Barnyardgrass (barnyardgrass [3]; [16]): 70
- Foxtail, Giant plant response rating (giant foxtail; [18]): 20
- Foxtail, Giant plant response rating (giant foxtail; [19]): 10
- Oat, Wild plant response rating (wild oat; [18]): 20
- Oat, Wild plant response rating (wild oat; [19]): 10
- Corn plant response rating (corn; [18]): 10
- Corn plant response rating (corn; [19]): 10
- Sedge, Umbrella plant response rating ([4]; visual rating, 13 to 15 days): 80
- Morningglory plant response rating (morningglory; [18]): 100
- Morningglory plant response rating (morningglory; [19]): 60
- Rice plant response rating (rice [5]; [17]): 0
- Rice plant response rating (rice [5]; [14]): 15
- Rice plant response rating (rice [5]; [15]): 45
- Plant response rating, Rice (rice [5]; [16]): 70
- Ducksalad plant response rating (ducksalad [6]; visual rating, 13 to 15 days): 80
- Crabgrass, Large plant response rating (large crabgrass; [18]): 20
- Crabgrass, Large plant response rating (large crabgrass; [19]): 10
- Barnyardgrass plant response rating (barnyardgrass [7]; [18]): 10
- Barnyardgrass plant response rating (barnyardgrass [7]; [19]): 0
- Barnyardgrass plant response rating (barnyardgrass [8]; visual rating, 13 to 15 days): 80
- Lambsquarters plant response rating (lambsquarters; [18]): 80
- Lambsquarters plant response rating (lambsquarters; [19]): 70
- Cocklebur plant response rating (cocklebur; [18]): 60
- Cocklebur plant response rating (cocklebur; [19]): 0
- Velvetleaf plant response rating (velvetleaf; [18]): 50
- Velvetleaf plant response rating (velvetleaf; [19]): 20
- Ducksalad plant response rating (ducksalad [9]; [17]): 0
- Ducksalad plant response rating (ducksalad [9]; [14]): 0
- Ducksalad plant response rating (ducksalad [9]; [15]): 25
- Plant response rating, Ducksalad (ducksalad [9]; [16]): 60
- Surinam Grass plant response rating (Surinam grass; [18]): 10
- Surinam Grass plant response rating (Surinam grass; [19]): 10
